Data published in the NIST ThermoML archive (doi:10.1007/s10765-010-0766-0).
“And” between values parts separate entries of the source, which are not always exact repeats. Identical values can stand only once.

Test: molar heat capacity at constant volume
Settings: Liquid, Vacuum adiabatic calorimetry

FC(F)C(F)(F)OCC(F)(F)F [2,2,2-trifluoroethyl 1,1,2,2-tetrafluoroethyl ether]
Settings	molar heat capacity at constant volume
342.15 K, 16809 kPa	207.06 J/K/mol
342.15 K, 16812 kPa	204.66 J/K/mol
343.15 K, 17505 kPa	207.06 J/K/mol
343.15 K, 17508 kPa	209.46 J/K/mol
344.15 K, 18201 kPa	208.46 J/K/mol
344.15 K, 18203 kPa	206.86 J/K/mol
345.15 K, 18896 kPa	207.66 J/K/mol
345.15 K, 18898 kPa	208.46 J/K/mol
346.15 K, 19590 kPa	208.86 J/K/mol
346.15 K, 19592 kPa	209.46 J/K/mol
347.15 K, 20282 kPa	208.46 J/K/mol
347.15 K, 20287 kPa	209.26 J/K/mol
348.15 K, 20974 kPa	209.86 J/K/mol
348.15 K, 20978 kPa	208.06 J/K/mol
349.15 K, 21666 kPa	210.06 J/K/mol
349.15 K, 21671 kPa	208.66 J/K/mol
350.15 K, 22357 kPa	208.66 J/K/mol
350.15 K, 22360 kPa	209.86 J/K/mol
351.15 K, 23047 kPa	209.86 J/K/mol
351.15 K, 23050 kPa	209.26 J/K/mol
352.15 K, 23735 kPa	210.86 J/K/mol
352.15 K, 23739 kPa	210.46 J/K/mol
353.15 K, 24423 kPa	210.26 J/K/mol
353.15 K, 24426 kPa	208.06 J/K/mol
354.15 K, 25110 kPa	210.86 J/K/mol
354.15 K, 25114 kPa	212.46 J/K/mol
355.15 K, 25797 kPa	211.06 J/K/mol
355.15 K, 25801 kPa	209.46 J/K/mol
356.15 K, 26482 kPa	211.86 J/K/mol
356.15 K, 26486 kPa	212.66 J/K/mol
357.15 K, 27166 kPa	211.26 J/K/mol
357.15 K, 27171 kPa	210.26 J/K/mol
358.15 K, 27851 kPa	212.26 J/K/mol
358.15 K, 27855 kPa	211.46 J/K/mol
359.15 K, 5632 kPa	208.86 J/K/mol
359.15 K, 5637 kPa	212.66 J/K/mol
359.15 K, 28535 kPa	212.86 J/K/mol
359.15 K, 28538 kPa	210.46 J/K/mol
360.15 K, 6174 kPa	219.66 J/K/mol
360.15 K, 6180 kPa	217.06 J/K/mol
360.15 K, 29217 kPa	214.06 J/K/mol
360.15 K, 29220 kPa	212.66 J/K/mol
361.15 K, 6718 kPa	218.26 J/K/mol
361.15 K, 6724 kPa	216.66 J/K/mol
361.15 K, 29899 kPa	213.46 J/K/mol
361.15 K, 29902 kPa	211.26 J/K/mol
362.15 K, 7261 kPa	215.86 J/K/mol
362.15 K, 7266 kPa	216.46 J/K/mol
363.15 K, 7803 kPa	218.26 J/K/mol
363.15 K, 7809 kPa	215.46 J/K/mol
364.15 K, 8346 kPa	219.06 J/K/mol
364.15 K, 8350 kPa	216.06 J/K/mol
365.15 K, 8888 kPa	216.66 J/K/mol
365.15 K, 8892 kPa	215.86 J/K/mol
366.15 K, 9430 kPa	217.86 J/K/mol
366.15 K, 9434 kPa	216.86 J/K/mol
367.15 K, 9971 kPa	217.46 J/K/mol
367.15 K, 9976 kPa	214.46 J/K/mol
368.15 K, 10512 kPa	219.06 J/K/mol
368.15 K, 10516 kPa	216.46 J/K/mol
369.15 K, 11053 kPa	221.26 J/K/mol
369.15 K, 11057 kPa	217.06 J/K/mol
370.15 K, 11593 kPa	218.86 J/K/mol
370.15 K, 11598 kPa	217.46 J/K/mol
371.15 K, 12133 kPa	218.66 J/K/mol
371.15 K, 12137 kPa	218.86 J/K/mol
372.15 K, 12673 kPa	218.86 J/K/mol
372.15 K, 12677 kPa	215.86 J/K/mol
373.15 K, 13212 kPa	219.66 J/K/mol
373.15 K, 13216 kPa	217.86 J/K/mol
374.15 K, 13752 kPa	219.46 J/K/mol
374.15 K, 13756 kPa	217.66 J/K/mol
375.15 K, 14290 kPa	217.86 J/K/mol
375.15 K, 14294 kPa	219.06 J/K/mol
376.15 K, 14828 kPa	220.86 J/K/mol
376.15 K, 14831 kPa	218.86 J/K/mol
377.15 K, 15366 kPa	220.06 J/K/mol
377.15 K, 15369 kPa	218.46 J/K/mol
378.15 K, 15904 kPa	218.46 J/K/mol
378.15 K, 15906 kPa	219.66 J/K/mol
379.15 K, 16441 kPa	218.86 J/K/mol
379.15 K, 16443 kPa	219.86 J/K/mol
380.15 K, 16977 kPa	219.26 J/K/mol
380.15 K, 16980 kPa	219.46 J/K/mol
381.15 K, 17514 kPa	219.26 J/K/mol
381.15 K, 17515 kPa	217.26 J/K/mol
382.15 K, 18050 kPa	219.86 J/K/mol
382.15 K, 18051 kPa	219.66 J/K/mol
383.15 K, 18585 kPa	221.26 J/K/mol
383.15 K, 18586 kPa	221.46 J/K/mol
384.15 K, 19120 kPa	220.66 J/K/mol
384.15 K, 19121 kPa	222.06 J/K/mol
385.15 K, 19655 kPa	218.86 J/K/mol
385.15 K, 19656 kPa	220.66 J/K/mol
386.15 K, 20189 kPa	221.06 J/K/mol
387.15 K, 20723 kPa	223.66 J/K/mol and 224.66 J/K/mol
388.15 K, 21256 kPa	224.66 J/K/mol and 224.06 J/K/mol
389.15 K, 21789 kPa	225.66 J/K/mol and 224.86 J/K/mol
390.15 K, 22322 kPa	226.86 J/K/mol and 224.86 J/K/mol
391.15 K, 22854 kPa	224.66 J/K/mol
391.15 K, 22855 kPa	228.46 J/K/mol
392.15 K, 23385 kPa	225.06 J/K/mol
392.15 K, 23386 kPa	227.06 J/K/mol
393.15 K, 23917 kPa	228.26 J/K/mol and 226.46 J/K/mol
394.15 K, 24448 kPa	226.26 J/K/mol and 223.66 J/K/mol
395.15 K, 24978 kPa	226.66 J/K/mol and 225.06 J/K/mol
396.15 K, 25507 kPa	229.06 J/K/mol
396.15 K, 25508 kPa	226.86 J/K/mol
397.15 K, 26037 kPa	228.06 J/K/mol
397.15 K, 26038 kPa	226.06 J/K/mol
398.15 K, 26566 kPa	229.06 J/K/mol
398.15 K, 26567 kPa	227.06 J/K/mol
399.15 K, 27094 kPa	227.06 J/K/mol
399.15 K, 27096 kPa	227.86 J/K/mol
400.15 K, 27622 kPa	228.66 J/K/mol
400.15 K, 27623 kPa	228.46 J/K/mol
401.15 K, 28150 kPa	229.66 J/K/mol
401.15 K, 28151 kPa	227.66 J/K/mol
402.15 K, 28677 kPa	226.66 J/K/mol
402.15 K, 28678 kPa	227.26 J/K/mol
403.15 K, 29204 kPa	229.26 J/K/mol
403.15 K, 29205 kPa	227.86 J/K/mol
404.15 K, 29730 kPa	227.86 J/K/mol
404.15 K, 29732 kPa	229.86 J/K/mol
